Among the test systems are RXF 393 renal; SNB-19 CNS; SR leukemia; UO-31 renal; COLO 205 colon; U251 CNS; CCRF-CEM leukemia; M14 melanoma; MDA-MB-231 breast; A549 NSCLC.
Experiment in all cases: DTP human tumour cell line panel, 48 h

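Where inhibition never reached the appropriate level, the endpoint shown equals the highest concentration tested. Otherwise, values were interpolated linearly from a five-concentration, 48-hour dose response in 96-well plates. At the GI50, growth is halved. At the TGI there is no net growth.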

Take `COc1ccc(NC2=C(Br)C(=O)C(C)=C(C)C2=O)cc1`: the GI50 was 2.71 µM in the assay with RXF 393 renal; 10.5 µM in the assay on SNB-19 CNS; 3.21 µM with SR leukemia; 1.73 µM with UO-31 renal; 21.3 µM in the assay on COLO 205 colon; 1.93 µM in the assay on U251 CNS. In addition, the GI50 in the assay with CCRF-CEM leukemia was 2.33 µM; in the assay on M14 melanoma, 11.7 µM; in the assay on MDA-MB-231 breast, 1.88 µM; with A549 NSCLC it was 18.7 µM. The TGI with RXF 393 renal is 8.13 µM; with SNB-19 CNS, 22.8 µM; with SR leukemia, more than 100 µM; in the assay on UO-31 renal, 3.16 µM; in the assay on COLO 205 colon, 51 µM; in the assay on U251 CNS it was 3.98 µM. For the same molecule, the concentration for total growth inhibition (TGI) is more than 100 µM with CCRF-CEM leukemia, 24.8 µM in the assay on M14 melanoma, 3.96 µM in the assay with MDA-MB-231 breast and 45.7 µM in the assay on A549 NSCLC.
For the molecule `COc1cc(-c2cn(C)c(=O)c(C)c2C)cc(OC)c1CN1CC[C@H](N2CCN(c3ccc(N[C@H]4CCC(=O)NC4=O)cc3F)CC2)C(F)(F)C1`, the GI50 is 11.1 µM in the assay on RXF 393 renal; 14.8 µM in the assay with SNB-19 CNS; 6.7 µM in the assay with SR leukemia; 4.56 µM with UO-31 renal; 14.4 µM in the assay with COLO 205 colon; 13.6 µM in the assay on U251 CNS. For the same molecule, the GI50 is 19.4 µM in the assay on CCRF-CEM leukemia, 12.2 µM with M14 melanoma, 11.5 µM in the assay on MDA-MB-231 breast and 12.3 µM with A549 NSCLC. The TGI in the assay with RXF 393 renal is 25 µM; with SNB-19 CNS, 31.6 µM; in the assay with SR leukemia, 51 µM; in the assay with UO-31 renal it was 17.6 µM; in the assay with COLO 205 colon, 37.4 µM; with U251 CNS, 29.6 µM. Besides, the TGI is more than 100 µM in the assay on CCRF-CEM leukemia, 27.7 µM in the assay on M14 melanoma, 25.4 µM in the assay with MDA-MB-231 breast and 31.1 µM with A549 NSCLC.
For the molecule `CC(=O)[CH-]C(C)=O.CC(=O)[CH-]C(C)=O.N=CC=N.[Sn+2]`, the GI50 in the assay on RXF 393 renal is 1.53 µM; in the assay with SNB-19 CNS, 14.6 µM; in the assay with SR leukemia it was 1.06 µM; in the assay on UO-31 renal it was 9 µM; with COLO 205 colon, 2.02 µM; with U251 CNS it was 5.16 µM. Also, the GI50 with CCRF-CEM leukemia was 1.51 µM; in the assay with M14 melanoma it was 2.41 µM; in the assay with MDA-MB-231 breast it was 2.72 µM; in the assay on A549 NSCLC, 9.6 µM. Further, the TGI was 3.34 µM in the assay on RXF 393 renal; 27.8 µM with SNB-19 CNS; 5.3 µM with SR leukemia; 21.1 µM in the assay on UO-31 renal; 3.61 µM with COLO 205 colon; 17.1 µM with U251 CNS. The TGI in the assay on CCRF-CEM leukemia amounted to 13.3 µM; in the assay on M14 melanoma, 5.7 µM; in the assay on MDA-MB-231 breast, 9.87 µM; with A549 NSCLC, 22.4 µM.
Turning to `CNC(=O)c1cc(Oc2ccc(NC(=O)Nc3ccc(Cl)c(OC(F)(F)F)c3)c(F)c2)ccn1`, the GI50 was 3.58 µM in the assay with RXF 393 renal; 3.06 µM with SNB-19 CNS; 1.49 µM with SR leukemia; 1.07 µM in the assay on UO-31 renal; 1.14 µM in the assay with COLO 205 colon; 2.32 µM in the assay on U251 CNS. In addition, the GI50 was 1.94 µM in the assay on CCRF-CEM leukemia, 1.02 µM with M14 melanoma, 1.26 µM in the assay with MDA-MB-231 breast and 2.03 µM in the assay on A549 NSCLC. For the same molecule, the TGI in the assay with RXF 393 renal stood at 18.9 µM; in the assay with SNB-19 CNS it was 20.7 µM; with SR leukemia it was 7.99 µM; in the assay on UO-31 renal, 13.3 µM; in the assay with COLO 205 colon, 7.65 µM; with U251 CNS it was 13.7 µM. The TGI in the assay with CCRF-CEM leukemia is more than 33.2 µM; in the assay on M14 melanoma it was 5.38 µM; with MDA-MB-231 breast, 8.74 µM; with A549 NSCLC, more than 33.2 µM.
With `Cc1ccc(C(=O)CC(Sc2cccc(Cl)c2Cl)c2ccc(Cl)cc2)cc1C` (stereo not given), the GI50 was 25.8 µM with RXF 393 renal; 27.5 µM in the assay on SNB-19 CNS; 7.23 µM in the assay with SR leukemia; 20 µM in the assay with UO-31 renal; 20.8 µM in the assay with COLO 205 colon; 11.5 µM in the assay on U251 CNS. Moreover, the GI50 is 18.7 µM in the assay with CCRF-CEM leukemia, 26.7 µM in the assay with M14 melanoma, 17.9 µM with MDA-MB-231 breast and 19.2 µM in the assay on A549 NSCLC. For the same molecule, the TGI in the assay on RXF 393 renal was 56.9 µM; in the assay on SNB-19 CNS it was 78.8 µM; in the assay on SR leukemia it was more than 100 µM; in the assay on UO-31 renal it was 40.9 µM; in the assay with COLO 205 colon, 46.5 µM; in the assay with U251 CNS, 25.8 µM. Further, the TGI in the assay on CCRF-CEM leukemia was 94.4 µM; in the assay with M14 melanoma, 65.1 µM; in the assay with MDA-MB-231 breast, 39 µM; in the assay on A549 NSCLC, 52.6 µM.
For the molecule `Oc1ccc(Cc2ccccc2)c2cccnc12`, the GI50 in the assay with RXF 393 renal was 2.3 µM; with SNB-19 CNS, 3.08 µM; with SR leukemia, 0.673 µM; in the assay with UO-31 renal, 0.628 µM; with COLO 205 colon, 7.74 µM; in the assay on U251 CNS, 0.999 µM. Also, the GI50 is 0.423 µM with CCRF-CEM leukemia, 1.51 µM with M14 melanoma, 4.36 µM in the assay on MDA-MB-231 breast and 4.21 µM in the assay with A549 NSCLC. In addition, the TGI in the assay with RXF 393 renal was 19.2 µM; in the assay on SNB-19 CNS, more than 100 µM; with SR leukemia it was more than 100 µM; with UO-31 renal, 9.34 µM; in the assay with COLO 205 colon, more than 100 µM; with U251 CNS, 37.7 µM. Further, the TGI with CCRF-CEM leukemia was found to be 5.44 µM; with M14 melanoma, 10.6 µM; in the assay with MDA-MB-231 breast it was 27.4 µM; in the assay with A549 NSCLC it was 71.9 µM.
As to `Nc1ccc(SC23CC4CC(CC(C4)C2)C3)cc1`, the TGI in the assay with RXF 393 renal, in the assay on SNB-19 CNS, with SR leukemia, with UO-31 renal, with COLO 205 colon and with U251 CNS was more than 100 µM in each case. In addition, the TGI in the assay with CCRF-CEM leukemia, in the assay on M14 melanoma, with MDA-MB-231 breast and in the assay on A549 NSCLC was more than 100 µM in each case.
Turning to `N#Cc1c(-c2ccccc2)nc2c(c(-c3ccccc3)nn2-c2ccccc2)c1-c1ccc(O)cc1`, the GI50 is 1.03 µM in the assay on RXF 393 renal; 1.9 µM in the assay on SNB-19 CNS; 2.95 µM with SR leukemia; 2.02 µM with UO-31 renal; 2.61 µM in the assay on COLO 205 colon; 1.63 µM in the assay on U251 CNS. In addition, the GI50 in the assay on CCRF-CEM leukemia was 3.13 µM; in the assay with M14 melanoma, 2.27 µM; with MDA-MB-231 breast, 1.7 µM; in the assay on A549 NSCLC, 2.57 µM. The TGI is 2.35 µM in the assay on RXF 393 renal; 3.8 µM in the assay on SNB-19 CNS; more than 100 µM in the assay on SR leukemia; 4.16 µM with UO-31 renal; 6.31 µM with COLO 205 colon; 3.97 µM with U251 CNS. Moreover, the TGI in the assay on CCRF-CEM leukemia was 13.4 µM; in the assay on M14 melanoma, 5.48 µM; in the assay with MDA-MB-231 breast, 3.31 µM; with A549 NSCLC it was 6.87 µM.
Take `NCCN1CCN(c2nccc(-c3ccc4ccccc4c3)n2)CC1`: the GI50 in the assay with RXF 393 renal is 1.46 µM; in the assay on SNB-19 CNS it was 2.26 µM; in the assay on SR leukemia, 1.87 µM; in the assay with UO-31 renal it was 1.5 µM; with COLO 205 colon, 1.76 µM; with U251 CNS, 1.85 µM. The GI50 with CCRF-CEM leukemia was 1.85 µM; with M14 melanoma, 1.89 µM; in the assay with MDA-MB-231 breast, 1.66 µM; in the assay with A549 NSCLC, 1.86 µM. In addition, the total growth inhibition concentration (TGI) in the assay on RXF 393 renal came out at 3.07 µM; in the assay on SNB-19 CNS it was 5.98 µM; in the assay with SR leukemia it was 6.11 µM; in the assay on UO-31 renal, 2.96 µM; with COLO 205 colon, 3.41 µM; in the assay with U251 CNS it was 3.52 µM. In addition, the TGI was found to be 4.37 µM in the assay on CCRF-CEM leukemia, 3.54 µM with M14 melanoma, 3.31 µM in the assay on MDA-MB-231 breast and 3.43 µM in the assay with A549 NSCLC.
On to `Cc1ncc(NC(=O)c2ccc(CN3CCN(C)CC3)c(C(F)(F)F)c2)cc1Nc1nccc(-c2cccnc2)n1`, for which the GI50 was 11.1 µM in the assay with RXF 393 renal; 18 µM in the assay on SNB-19 CNS; 2.9 µM in the assay with SR leukemia; 11.7 µM in the assay with UO-31 renal; 5.55 µM with COLO 205 colon; 15.9 µM in the assay on U251 CNS. The GI50 was 14.4 µM in the assay with CCRF-CEM leukemia, 10.2 µM in the assay with M14 melanoma, 12.5 µM with MDA-MB-231 breast and 16.4 µM with A549 NSCLC. Also, the TGI is 23.8 µM in the assay with RXF 393 renal; 32.1 µM with SNB-19 CNS; 47.8 µM with SR leukemia; 24 µM in the assay on UO-31 renal; 21.6 µM in the assay on COLO 205 colon; 29.9 µM with U251 CNS. The TGI in the assay with CCRF-CEM leukemia was 91.9 µM; in the assay with M14 melanoma it was 22.7 µM; in the assay on MDA-MB-231 breast, 27.3 µM; in the assay on A549 NSCLC it was 31.5 µM.
`CNC(=O)c1cn(C[C@H](F)CCc2ccc(NC(=O)Cc3cc(OC4CC(F)(F)C4)cc(C)n3)nn2)nn1`: the GI50 in the assay on RXF 393 renal was more than 31.5 µM; with SNB-19 CNS it was more than 100 µM; in the assay on SR leukemia it was more than 81.8 µM; in the assay on UO-31 renal, more than 100 µM; in the assay on COLO 205 colon it was more than 100 µM; with U251 CNS, 0.102 µM. For the same molecule, the GI50 in the assay on CCRF-CEM leukemia is more than 45.8 µM; with M14 melanoma, more than 100 µM; in the assay with MDA-MB-231 breast it was more than 100 µM; in the assay with A549 NSCLC, 0.0594 µM. Also, the TGI with RXF 393 renal, in the assay on SNB-19 CNS, in the assay with SR leukemia, with UO-31 renal, with COLO 205 colon and with U251 CNS was more than 100 µM throughout. Moreover, the TGI in the assay with CCRF-CEM leukemia, with M14 melanoma, in the assay with MDA-MB-231 breast and in the assay on A549 NSCLC was more than 100 µM throughout.

As usually defined, the GI50 is the concentration giving 50% growth inhibition. By TGI is commonly meant the concentration at which net growth stops. Higher therefore signals lower sensitivity of the cells.
